A word on the viability, T/C: it is the result in the treated group divided by that in the control group, in per cent. In general, IC50 refers to the concentration that gives 50% inhibition.

This experiment relates to 922993-354-T-J3-PDC complex spheroids, viability. In words: Anticancer human tumor 922993-354-T-J3-PDC patient-derived endometrial carcinoma cell line growth inhibition [GQUAD]. To be noted: for viability, T/C: stronger effect = lower value; for IC50: curve of compound. The source says: DNA G-quadruplex Stabilizer Agents in Combinations in Complex Spheroids
A high-throughput screen of multi-cell type tumor spheroids was designed to identify active combinations of DNA G-quadruplex stabilizer agents and targeted small molecules. Complex spheroids include a stromal component modeled by human endothelial cells (HUVEC) and fibroblasts modeled by human mesenchymal stem cells (MSCs). The concentration ranges selected for each drug and investigational agent were based upon clinically achievable concentrations if the clinical Cmax of the agent was known.
Compounds. The drugs and investigational agents: pidnarulex (CX-5461; NSC782164), APTO-253 (NSC789042), BRACO-19 (NSC847499), peposertib (NSC802822), ceralasertib (NSC780249), elimusertib (NSC800525), camonsertib (NSC841442), AZD-1390 (NSC803789), olaparib (NSC753686), talazoparib (NSC767125), ART-558 (NSC835418), sotorasib (NSC818433), MRTX-1133 (NSC836407), SN-38 (NSC673596), topotecan (NSC609699), etoposide (NSC141540), doxorubicin (NSC123127), gemcitabine (NSC613327), 5-fluorouracil (NSC19893), paclitaxel (NSC125973), vemurafenib (NSC761431), panobinostat (NSC761190), R-306465 (JNJ-16241199; NSC773264), adavosertib (NSC754352), TP-3654 (NSC805149), carboplatin (NSC241240), KSQ-4279 (NSC840948), and staurosporine (NSC755774) were obtained from the National Cancer Institute (NCI) Developmental Therapeutics Program Chemical Repository (34). The FDA-approved anticancer drug set is available from the NCI Developmental Therapeutics Program. […] The stock solutions were prepared in dimethyl sulfoxide (DMSO, Sigma-Aldrich, St. Louis, MO, cat. D2650) at 800-fold the tested concentration and stored at -70 degrees C prior to their use. All drugs and investigational agents were tested over a range starting from a high concentration at or near the clinical Cmax and decreasing in half-log increments. If the clinical Cmax for an agent had not been determined, the highest concentration tested was 10 microM.
2.3 Cell Culture. All cells were maintained in an incubator at 37 degrees C and 5% CO2 with 95% humidity. The PDC lines were cultured according to standard operating procedures established by the NCI PDMR. All PDCs were thawed and cultured in Matrigel-coated flasks prepared with a working solution of 1X Ham's F-12 nutrient mix, without supplementation (Invitrogen, cat. 11765054), 100 U/mL penicillin-streptomycin (Invitrogen, cat. 15140122), and 2.5% Matrigel (Corning Inc., cat. 354248) for the first three passages. The 857933-349-R-J2-PDC line was cultured in 6C/Colon 1B media, which includes advanced DMEM/F-12 (Thermo Fisher Scientific, cat. 12634028), 10 mM HEPES (Thermo Fisher Scientific, cat. 15630080), 1X GlutaMAX supplement (Thermo Fisher Scientific, cat. 35050061), 0.1 mg/mL primocin (InvivoGen, cat. ant-pm-2), 10% defined fetal bovine serum, heat inactivated (HyClone Laboratories Inc., cat. SH30070.03HI), 50% L-WRN conditioned media (ATCC, cat. CRL-3276), 1.25 mM N-Acetyl-L-cysteine (Sigma-Aldrich, cat. A9165), 10 mM nicotinamide (Sigma-Aldrich, cat. N0636), 1X B-27 supplement (Thermo Fisher Scientific, cat. 17504044), 1X N-2 supplement (Thermo Fisher Scientific, cat. 17502048), 10 microM Y-27632 dihydrochloride (Tocris Bioscience, cat. 1254), and 50 ng/mL human EGF recombinant protein (Thermo Fisher Scientific, cat. PHG0311). The 485176-168-R4-J1-PDC line was cultured in Panc media, which includes all 6C/Colon 1B media components plus 100 ng/mL human FGF-10 (Thermo Fisher Scientific, cat. 100-26), 500 nM SB-431542 (Selleckchem, cat. S1067), and gastrin (Tocris, cat. 3006).
[…]

“And” between values parts separate entries of the source, which are not always exact repeats. Identical values can stand only once.
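Note: spheroids exposed to compounds for seven days.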

With `CC(C)n1c(=O)n(C)c2cnc3cc(F)c(-c4ccc(OCCCN5CCCCC5)nc4)cc3c21`, the IC50 is > 10000 nM and 7750 nM. The viability, T/C (compound 0.0316 µM) was 96.3% and 98.6% and 87.9%. Under “compound 0.1 µM”, the viability, T/C was 105% and 85.5% and 77.3%. For the same compound, where the note is “compound 0.316 µM”, the viability, T/C is 70.1% and 91.7% and 63.2%. Also, under “compound 1 µM”, the viability, T/C is 96% and 84.2% and 81.9%. For the same compound, the viability, T/C (compound 3.16 µM) was 77.9% and 79.6% and 84.8%. Besides, for the setting “compound 10 µM”, the viability, T/C was 49.7% and 55.9% and 41.8%.
In the case of `CC1COCCN1c1cc(-c2ccnn2C)c2ccnc(-c3ccn[nH]3)c2n1` (configuration not stated), the IC50 is 273 nM and 184 nM and 451 nM. For the same compound, the viability, T/C (compound 0.0316 µM) was 83.5% and 95% and 87.4%. Moreover, the viability, T/C (compound 0.1 µM) was 71.5% and 63.7% and 70.4%. Besides, the viability, T/C (compound 0.316 µM) is 48.3% and 41.6% and 62.9%. Moreover, the viability, T/C (compound 1 µM) was 22.1% and 12.8% and 28.7%. For the same compound, the viability, T/C (compound 3.16 µM) is 19.6% and 22% and 23.4%. For the same compound, the viability, T/C (compound 10 µM) was 16.8% and 19.2% and 17.7%.
`CC1COCCN1c1cc(C2(O)CC3CCC(C2)O3)c2cnn(-c3ccn[nH]3)c2n1` (configuration not stated): the IC50 is 514 nM and 326 nM and 460 nM. Also, the viability, T/C (compound 0.0316 µM) was 93.2% and 97.1% and 107%. In addition, the viability, T/C (compound 0.1 µM) was 80.6% and 62.3% and 68.6%. In addition, the viability, T/C (compound 0.316 µM) is 54.2% and 56.9% and 63.5%. The viability, T/C (compound 1 µM) is 41.3% and 36% and 37.9%. The viability, T/C (compound 3.16 µM) is 26.8% and 19.8% and 23.5%. Under “compound 10 µM”, the viability, T/C was 18.6% and 15.3% and 15.6%.
Turning to `CC1COCCN1c1cc(C2(S(C)(=N)=O)CC2)nc(-c2ccnc3[nH]ccc23)n1` (configuration not stated), the IC50 was more than 10000 nM. Also, under “compound 0.0316 µM”, the viability, T/C was 99.8% and 96.6% and 97.3%. Also, under “compound 0.1 µM”, the viability, T/C was 93.4% and 96.7% and 96.8%. Besides, the viability, T/C (compound 0.316 µM) is 91.8% and 84.6% and 95.6%. In addition, the viability, T/C (compound 1 µM) is 106% and 98.6% (2×). In addition, the viability, T/C (compound 3.16 µM) was 93.7% and 129% and 92.5%. Also, the viability, T/C (compound 10 µM) was 65.3% and 70.4% and 60.7%.
Consider `CC[C@@]1(O)C(=O)OCc2c1cc1n(c2=O)Cc2cc3c(CN(C)C)c(O)ccc3nc2-1`, for which the IC50 was 298 nM and 241 nM and 249 nM. Further, the viability, T/C (compound 0.000999 µM) was 111% and 105% and 82.9%. Besides, the viability, T/C (compound 0.00316 µM) was 80.6% and 108% and 97.9%. Further, the viability, T/C (compound 0.00999 µM) was 113% and 76.5% and 112%. Moreover, the viability, T/C (compound 0.0316 µM) was 85.2% and 98.8% and 103%. In addition, the viability, T/C (compound 0.0999 µM) is 71% and 84.4% and 94.9%. Further, for the setting “compound 0.316 µM”, the viability, T/C was 48.6% and 38.9% and 38.2%.
As for `CCc1c2c(nc3ccc(O)cc13)-c1cc3c(c(=O)n1C2)COC(=O)[C@]3(O)CC`, the IC50 is 8.01 nM and 5.66 nM and 7.43 nM. Further, the viability, T/C (compound 0.000999 µM) was 87% and 104% and 96.5%. Besides, the viability, T/C (compound 0.00316 µM) is 71.4% and 69.9% and 67.3%. For the same compound, the viability, T/C (compound 0.00999 µM) was 48% and 31.8% and 48.8%. Also, the viability, T/C (compound 0.0316 µM) was 18.4% and 10.6% and 23.2%. Further, the viability, T/C (compound 0.0999 µM) was 24.3% and 11.3% and 29.4%. Under “compound 0.316 µM”, the viability, T/C was 24.9% and 13.8% and 31.8%.
For the compound `COc1ccc([C@@H](O)c2cc(-c3ncnc4cc(N5CCOCC5)ccc34)c(F)cc2Cl)nn1`, the half-maximal inhibitory concentration (IC50) is more than 10000 nM. Moreover, for the setting “compound 0.0316 µM”, the viability, T/C is 93.2% and 109% and 98.5%. Further, the viability, T/C (compound 0.1 µM) was 99.4% and 61.7% and 94.8%. Further, the viability, T/C (compound 0.316 µM) is 103% and 87% and 92.8%. The viability, T/C (compound 1 µM) is 93.4% and 83.4% and 86.5%. In addition, the viability, T/C (compound 3.16 µM) was 92% and 94.4% and 85%. Further, the viability, T/C (compound 10 µM) is 69.3% and 69% and 52.9%.
In the case of `Cc1[nH]c2ccccc2c1CCNCc1ccc(/C=C/C(=O)NO)cc1`, the IC50 was more than 316 nM. Moreover, under “compound 0.000999 µM”, the viability, T/C is 83.6% and 110% and 88.9%. The viability, T/C (compound 0.00316 µM) is 102% and 93.8% and 74%. For the same compound, under “compound 0.00999 µM”, the viability, T/C is 70% and 75.6% and 89.6%. Besides, the viability, T/C (compound 0.0316 µM) was 101% and 89% and 85.7%. The viability, T/C (compound 0.0999 µM) was 63.2% and 87.7% and 68.7%. Moreover, the viability, T/C (compound 0.316 µM) is 57.2% and 55.4% and 52.3%.
In the case of `Cc1cccc(N(C)C(=O)C2C(O)CCN2c2nc(C)cc(C(F)(F)F)c2C#N)c1` (configuration not stated), the IC50 was more than 10000 nM. Further, for the setting “compound 0.0316 µM”, the viability, T/C was 90.6% and 93.6% and 97.1%. For the same compound, for the setting “compound 0.1 µM”, the viability, T/C was 106% and 90.6% and 105%. The viability, T/C (compound 0.316 µM) is 83.6% and 87.3% and 122%. Besides, the viability, T/C (compound 1 µM) is 118% and 86.8% and 91.9%. Also, the viability, T/C (compound 3.16 µM) was 122% and 71.7% and 102%. Further, the viability, T/C (compound 10 µM) is 110% and 94.2% and 78.3%.
As to `Cc1cnc(CNC(=O)c2c(=O)c3ccc(N4CCCN(C)CC4)nc3n3c2sc2ccccc23)cn1`, the viability, T/C (compound 0.0316 µM) was 83.9% [middle of 12 runs]; the viability, T/C (compound 0.1 µM) is 66% [middle of 12 runs]; the viability, T/C (compound 1 µM) is 53.7% [middle of 12 runs]; the viability, T/C (compound 3.16 µM) was 49.3% [middle of 12 runs]; the viability, T/C (compound 10 µM) was 46.9% [middle of 12 runs].
Consider `Cn1ncnc1[C@H]1c2n[nH]c(=O)c3cc(F)cc(c23)N[C@@H]1c1ccc(F)cc1`, for which the IC50 was more than 316 nM. For the same compound, the viability, T/C (compound 0.000999 µM) was 93.3% and 98.8% and 108%. Besides, the viability, T/C (compound 0.00316 µM) is 101% and 78.7% and 113%. Also, the viability, T/C (compound 0.00999 µM) was 76.9% and 101% and 85.8%. Besides, for the setting “compound 0.0316 µM”, the viability, T/C is 87.9% and 74.9% and 91.4%. Further, the viability, T/C (compound 0.0999 µM) was 68.9% and 72% and 78.9%. In addition, the viability, T/C (compound 0.316 µM) is 54.5% and 62% and 59.1%.
As to `O=C(c1cc(Cc2n[nH]c(=O)c3ccccc23)ccc1F)N1CCN(C(=O)C2CC2)CC1`, the IC50 is more than 10000 nM. In addition, the viability, T/C (compound 0.0316 µM) is 86.5% and 123% and 91.1%. Besides, the viability, T/C (compound 0.1 µM) was 93% and 92.2% and 94.4%. Also, the viability, T/C (compound 0.316 µM) is 102% and 98.1% and 105%. Moreover, the viability, T/C (compound 1 µM) is 86.7% and 85.6% and 86.3%. Also, the viability, T/C (compound 3.16 µM) was 88.2% and 92.5% and 92.1%. For the same compound, the viability, T/C (compound 10 µM) is 99.3% and 77.2% and 85.4%.

These data come from PubChem BioAssay AID2060489 (Molecular Pharmacology Branch, DTP, NCI, 2025).
